From patent US5495005A, “Synthesis and pharmacological activity of a series of novel xanthone derivatives” (National Science Council, priority 1993, dated 1996)
pIC50: −log10 of the molar value.

Tests used:
platelet = details: literature report; cited from earlier work
rabbit platelet = experiment: collagen-induced aggregation of washed rabbit platelets (turbidimetry); type: cell-based; details: comparison with norathyrol
Protocol: It is known that ADP, arachidonic acid, PAF and collagen treatment will lead to the aggregation of rabbit platelet. […] Using 10 μg/ml of collagen as inducer of platelet aggregation, tile replacement of the methoxy or hydroxy group on the C-3 by the 3-propylamino-2-hydroxypropoxyl group increases the inhibitory effect on platelet aggregation. The reaction mechanisms of 1,3,6,7,-tetraoxygenated xanthones and 3,4-dihydroxygenated xanthone inhibit the formation of A2 -thromboxane and the degradation of phosphoinositide, and inhibit the activity of A2 -thromboxane, respectively.
Based on the method of Teng et. al. (Ouyang, C. Biochem. Biophys. Acta. 1987, 924:375), rabbit platelets were washed with platelet-rich plasma which was adjusted with EDTA for anti-aggregation. Counted by Coulter Counter (model, ZM), the platelets were adjusted to a density of 4.5×10^8 platelets/ml by Tyrode's solution which contains 136.8 mM NaCl, 2.8 mM KCl, 1.0 mM CaCl2 and 11.2 mM glucose, and 0. 35% bovine serum albumin. Platelets were agitated at a speed of 1200 rpm to form a suspension. All xanthone derivatives tested were dissolved in DMSO. The concentration of DMSO was limited to 0.5% to prevent its interference to the aggregation reaction. The aggregation was assayed by O'Brin's turbidometer. To determine the degree of aggregation, the absorbance of platelet suspension was referred as 0% aggregation and that of the platelet […] was used for 100%. Lumiaggregometer (Chromo-Log Co. USA) was used to carry out the aggregation assay.

rat's thoracic aorta = experiment: contraction of rat's thoracic aorta induced by calcium/high potassium or norepinephrine
anesthetized rats = experiment: blood pressure and heart beat of anesthetized rats after i.v. injection; type: in vivo; details: for blood pressure of anesthetized rats: anesthetized rat
[1] = target: angiotension I converting enzyme; experiment: inhibition of angiotension I converting enzyme; type: biochemical; details: read-out: IC50 toward angiotension I converting enzyme
angiotension I converting enzyme, sequence (P12821 30-1306): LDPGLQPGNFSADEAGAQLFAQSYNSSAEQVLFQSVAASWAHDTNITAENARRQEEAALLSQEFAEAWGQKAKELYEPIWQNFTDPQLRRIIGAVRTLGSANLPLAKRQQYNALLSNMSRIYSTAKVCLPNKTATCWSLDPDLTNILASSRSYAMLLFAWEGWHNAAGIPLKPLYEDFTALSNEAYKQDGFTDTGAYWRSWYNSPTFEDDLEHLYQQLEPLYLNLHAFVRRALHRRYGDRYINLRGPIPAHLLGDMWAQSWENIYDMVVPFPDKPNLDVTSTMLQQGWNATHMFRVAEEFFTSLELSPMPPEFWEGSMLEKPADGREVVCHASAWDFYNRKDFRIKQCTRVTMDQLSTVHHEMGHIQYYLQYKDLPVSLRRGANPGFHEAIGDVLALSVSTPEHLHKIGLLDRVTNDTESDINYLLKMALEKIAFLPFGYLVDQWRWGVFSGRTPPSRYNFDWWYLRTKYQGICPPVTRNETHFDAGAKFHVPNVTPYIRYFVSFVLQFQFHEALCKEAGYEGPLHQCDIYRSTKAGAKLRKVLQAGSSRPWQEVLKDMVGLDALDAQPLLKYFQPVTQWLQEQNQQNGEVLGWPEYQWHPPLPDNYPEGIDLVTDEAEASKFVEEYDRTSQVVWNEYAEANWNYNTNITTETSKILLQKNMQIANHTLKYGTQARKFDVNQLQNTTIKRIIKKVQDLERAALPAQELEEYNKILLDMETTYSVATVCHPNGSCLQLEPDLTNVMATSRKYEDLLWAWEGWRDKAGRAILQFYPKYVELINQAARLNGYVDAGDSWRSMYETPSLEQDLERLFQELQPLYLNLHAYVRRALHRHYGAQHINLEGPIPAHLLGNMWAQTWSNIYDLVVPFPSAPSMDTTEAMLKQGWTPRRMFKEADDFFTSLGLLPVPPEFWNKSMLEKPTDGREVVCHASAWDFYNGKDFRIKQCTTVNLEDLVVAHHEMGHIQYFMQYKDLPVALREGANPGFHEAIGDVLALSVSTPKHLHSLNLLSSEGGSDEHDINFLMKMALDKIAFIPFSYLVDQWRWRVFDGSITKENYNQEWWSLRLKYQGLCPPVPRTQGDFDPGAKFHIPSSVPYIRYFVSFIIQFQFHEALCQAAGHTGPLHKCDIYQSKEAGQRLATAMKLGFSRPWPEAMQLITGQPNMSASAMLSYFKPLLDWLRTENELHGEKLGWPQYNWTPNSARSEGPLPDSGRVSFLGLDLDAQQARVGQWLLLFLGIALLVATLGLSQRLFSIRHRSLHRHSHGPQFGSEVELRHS

peripheral blood vessels = details: literature report; cited from earlier work
[2] = test system: atrioventricular conduction; details: literature report; cited from earlier work
myocardiac cells = details: literature report; cited from earlier work

## tripteroside acetate
platelet
  inhibition on platelet aggregation: strong inhibition on platelet aggregation

## CC(=O)Oc1cc2oc3c(OC(C)=O)c(OC(C)=O)ccc3c(=O)c2cc1OC(C)=O [3 '4 '6 '7-Tetrahydroxyxanthone acetate]
Rabbit platelet
  effect on inhibiting collagen-induced platelet aggregation, compared with norathyrol: more significant effect on inhibiting collagen-induced platelet aggregation than norathyrol

## CC(=O)Oc1cc(OC(C)=O)c2c(=O)c3cc(OC(C)=O)c(OC(C)=O)cc3oc2c1 [norathyrol acetate]
platelet
  inhibition on platelet aggregation: strong inhibition on platelet aggregation

## O=c1c2ccccc2oc2cc(OCC(O)CNC3CCCCC3)ccc12 (stereo not drawn) [3-[3-(Cyclohexylamino)-2-hydroxypropoxy] xanthone]
Rabbit platelet
  effect on inhibiting collagen-induced platelet aggregation, compared with norathyrol: more significant effect on inhibiting collagen-induced platelet aggregation than norathyrol

## CC(=O)Oc1cc2oc3ccccc3c(=O)c2cc1OC(C)=O [2,3-dihydroxyxanthone diacetate, 2,3-Dihydroxyxanthone diacetate]
Rabbit platelet
  effect on inhibiting collagen-induced platelet aggregation, compared with norathyrol: more significant effect on inhibiting collagen-induced platelet aggregation than norathyrol

## CC(C)NCC(O)COc1ccc2c(=O)c3ccccc3oc2c1 (stereo not drawn) [3[3-(Isopropylamino)-2-hydroxypropoxyl)] xanthone]
rat's thoracic aorta; 10^-4 M, potassium ion 100 mM
  inhibition of contraction of rat's thoracic aorta induced by high potassium: significantly inhibit the contraction
Anesthetized rats
  heart beat of the anesthetized rat: slow down the heart beat
  blood pressure of anesthetized rats: significantly reduce the blood pressure

## O=c1c2cc(O)c(O)cc2oc2c(O)c(O)ccc12 [3,4,6,7-tetrahydroxyxanthone, 3,4,6,7-Tetrahydroxyxanthone]
Anesthetized rats
  blood pressure of anesthetized rats: reducing the blood pressure
[1]
  pIC50: 4.45

## O=c1c2cc(O)c(O)cc2oc2cc(O)cc(O)c12 [norathyriol]
Peripheral blood vessels
  relaxation of peripheral blood vessels: strongly relax the peripheral blood vessels
[2]
  atrioventricular conduction of a rabbit: significantly depress the atrioventricular conduction
Myocardiac cells
  inhibition of calcium influx in myocardiac cells: inhibit the calcium influx

## CCCNCC(O)COc1ccc2c(=O)c3ccccc3oc2c1 (stereo not drawn) [3 [3-(propylamino)-2-hydroxypropoxy]xanthone]
Anesthetized rats
  heart beat of the anesthetized rat: slow down the heart beat
  blood pressure of anesthetized rats: significantly reduce the blood pressure

## O=c1c2ccccc2oc2cc(O)c(O)cc12 [2,3-dihydroxyxanthone, 2,3-Dihydroxyxanthone]
rat's thoracic aorta; 100 μg/ml, 1.9 mM calcium ion, 80 mM potassium ion
  inhibition of muscle contraction in rat's thoracic aorta induced by calcium ion at high potassium: significantly inhibit
rat's thoracic aorta; 100 μg/ml, 3 mM norepinephrine
  inhibition of phasic or tonic muscle contraction induced by norepinephrine: significantly inhibit
Anesthetized rats
  blood pressure of anesthetized rats: significantly lowered the blood pressure
